Results published in patent US20260345635A1, “SPRAY DRIED TREPROSTINIL FORMULATION” (Insmed Incorporated, priority 2023, published 2026).

What was measured:
[1] = Aerosol performance of TPIP by NGI with four RS01 devices of different resistance; format: physicochemical
Procedure: FIGS. 8A-8C are graphs showing TP Fine Particle Fraction (FPF) (FIG. 8A); Fine Particle Dose (FPD) as a Function of Device Resistance for the 8 mg (blue), 16 mg (orange), and 32 mg (gray) Capsule Dose (FIG. 8B); and TP FPD as a Function of Capsule Dose for Each Device (FIG. 8C). Trend lines are only shown for the UHR and HR DPIs in FIG. 8C. The ultra-high resistance (UHR), the high resistance (HR), the medium resistance (MR) and the low resistance (LR) devices were tested at 40, 60, 85 and 100 LPM, respectively.
The aerosolized composition is administered to a patient in need of treatment of PH, e.g., PAH or PH associated with interstitial lung disease (PH-ILD). In one embodiment, the aerosolized composition is administered to a patient in need of treatment of pulmonary fibrosis (e.g., PH-ILD where the ILD is pulmonary fibrosis). The aerosolized composition can be characterized by certain parameters known to those of skill in the art, such as fine particle fraction (FPF), fine particle dose (FPD), emitted dose (ED), mass median aerodynamic diameter (MMAD) and/or particle size and distribution. In embodiments, these parameters are measured by NGI. In embodiments, the NGI uses a flow rate corresponding to a 3 kPa to 4.5 kPa air pressure drop relative the resistance of the DPI. In embodiments, the pressure drop is 4 kPa. For example, the performance of an ultra high resistance (UHR), high resistance (HR) and medium resistance (MR) devices may be evaluated by drawing 4 L of air through the DPI at a flow rate of 40, 60 and 85 LPM, respectively, corresponding to the 4 kPa air pressure drop. Aerosol characterization data for the above-noted parameters can be compared across different DPI devices (with different resistances). In embodiments, the mean inhaler resistance of a high resistance DPI used to achieve the parameters described herein ranges from 0.025 to 0.040 kPA^1/2 (L/min^−1)^−1. In embodiments, the mean inhaler resistance of a high resistance DPI used to achieve the parameters described herein ranges from 0.030 to 0.040 kPA^1/2 (L/min^−1)^−1. In embodiments, the mean inhaler resistance of a high resistance DPI used to achieve the parameters described herein ranges from about 0.034 to about 0.036 kPA^1/2 (L/min^−1)^−1.
Four Plastiape RS01 Model 7 DPIs (Plastiape S. p.A., Osnago, Italy) differ with respect to their device resistance: Ultra-high Resistance (UHR, code 239700005AA), High Resistance (HR, code 239700002AA), Medium Resistance (MR, code 239700006AA) and Low Resistance (LR, code 239700001AB). The pressure drop across each device containing an empty capsule was measured as a function of flow rate between 30 and 120 L/min (LPM). The present disclosure teaches that the high resistance DPI device is selected for evaluation and use. A peak inspiratory flow rate of 80 LPM, 60 LPM, 40 LPM, or 30 LPM corresponds to a pressure drop of 5.4 kPa, 4 kPa, 1.4 kPa, or 0.89 kPa, respectively, for the high resistance DPI.
In this Example, Applicant investigated the aerosol performance of TPIP in response to changes in capsule fill, device resistance, and inspiratory flow rate to enable selection of an inhaler for clinical use. Capsules containing 8, 16 or 32 mg of TPIP (80, 160, or 320 μg TP, respectively) were evaluated using four breath-actuated RS01 devices with low, medium, high or ultra-high inspiratory resistances, creating 12 different capsule and device configurations for evaluation.
The TP aerosol particle size distribution profiles for the UHR, HR, MR, and LR DPI devices are shown in FIGS. 7A-7C for the 8, 16 and 32 mg TPIP capsules, respectively. The TP aerosol particle size distribution profiles are polydisperse for the LR, MR and HR devices with the UHR device showing a trend towards a less polydisperse profile. The values for the total mass recoveries, emitted dose, MMAD, GSD, FPF, and FPD for the UHR, HR, MR, and LR devices loaded with 8, 16 and 32 mg TPIP capsules are shown in Table 5.

[2] = In vitro aerosol performance of TPIP from HR RS01 DPI by Next Generation Impactor with breath simulator; format: physicochemical; conditions: 30 LPM; for FPD (<5 μm), TP: 16 mg capsule
Procedure: All the experiments in the following examples of present disclosure were performed with the RS01 Model 7 Plastiape (Plastiape S.p.A., Osnago, Italy) high resistance (HR) (code 239700002AA) DPI device for evaluation. The following examples relate to in vitro aerosol performance of the capsules containing 16 and 32 mg TPIP utilizing the HR RS01 Plastiape device in response to more clinically relevant inhalation profiles deviating from the rectangular wave profile. The aerosol performance were evaluated at different inhalation volumes of 4 L, 2 L or 1 L and at a different peak inspiratory flow rate of 60 LPM corresponding to a pressure drop of 4 kPa or 30 LPM corresponding to a pressure drop of 0.89 kPa across the device to reflect a diverse set of user scenarios.
An RS01 Model 7 Plastiape (Plastiape S.p.A., Osnago, Italy) high resistance (HR) (code 239700002AA) DPI device was used for evaluation. The pressure drop across the HR device containing an empty capsule was measured as a function of flow rate between 30 to 100 L/min (LPM).
To evaluate the differences in aerosol performance in response to different breathing profiles, TPIP aerosol emitted from the HR Plastiape device was delivered to the NGI (MSP Corp., Shoreview, MN) at ambient temperatures and low humidity (<45% RH) under various scenarios generated by the breathing simulator (BRS 3100, Copley), as presented in FIG. 1. A mixing inlet (Copley) was attached in between the pre-separator and the induction port to allow a constant flow rate of 30 or 60 LPM to be achieved through the NGI, while varying the change in inhalation profiles from the HR Plastiape device via BRS system. The outlet port of the NGI was connected to a vacuum pump drawing 30 or 60 LPM airflow (X) via a critical flow controller (TPK 2100, Copley), and an airflow of 30 or 60 LPM (Y) was drawn into the mixing inlet to ensure that initially no airflow (X-Y=0) was drawn through the inhaler. Aerosolization of the powder into the NGI was triggered by the BRS system via a diversion valve that redirects the airflow (Y) into the BRS system. For example, if 30 LPM airflow of Y is redirected to the BRS system, this would cause 30 LPM airflow to be drawn through the inhaler and into the mixing inlet. Therefore, the simulated inhalation profile generated by the BRS system is identical to the inhalation profile through the inhaler.
The BRS software was manually programmed through a Word Pad script to simulate inhalation acceleration rates of 20, 5.88, 2, 1, and 0.5 L/sec^2 corresponding to 50, 170, 500, 1000, and 2000 millisecond (ms) ramp times for a total inhaled volume of 4 L, and for 2 and 1 L inhalation volumes at both extreme acceleration rates to achieve the 60 LPM flow rate. Additionally, the breathing profile scripts for the 1, 2, and 4 L inhalation volumes at 20 and 0.5 L/s^2 (corresponding to 50 and 2000 ms ramp times) to reach the 30 LPM flow rate are included. A trapezoidal waveform was used to maintain the 4 L total inhalation volume as well as to keep the maximum inhalation flow rate at 60 LPM corresponding to the 4 kPa pressure drop across the device (FIG. 2A). Additionally, the breathing profiles with reduced inhalation volumes of 1 and 2 L were evaluated at the two extreme acceleration rates of 20 and 0.5 L/s^2 (corresponding to 50 and 2000 ms ramp times) for the 60 LPM inspiratory flow rate (FIG. 2B), and 25 and 1000 ms ramp times for the 30 LPM inspiratory flow rate (FIG. 2C).
The aerosol performance of each inhalation profile was characterized for TP with respect to its emitted dose (ED), mass median aerodynamic diameter (MMAD), geometric standard deviation (GSD), fine particle fraction<5 μm (FPF) and fine particle dose<5 μm (FPD) as described below. The total recovery of TP was also measured to provide assurance that each experiment was conducted acceptably. […]

[3] = 16 mg capsule, all four devices
[4] = 32 mg capsule, LR device, 100 LPM
[5] = 32 mg capsule, MR device (printed MA), 85 LPM

FPD [1, 3]: 98 to 104 µg
FPF [1, 3]: 71-81%
FPD (<5 μm), TP [1, 4]: 155 µg
FPF (<5 μm) [1, 4]: 58%
FPD (<5 μm), TP [1, 5]: 168 µg
FPF (<5 μm) [1, 5]: 62%
FPD ([1]; 32 mg capsule, UHR and HR devices): 197 to 200 µg
FPF ([1]; 32 mg capsule, all four devices): 58-76%
ED ([2]; 16 mg capsule, 1, 2, 4 L, 25 ms ramp): 76%
emitted doses ([2]; 16 mg capsule, 1, 2, 4 L, 1000 ms ramp): 72-75%
FPD (<5 μm), TP ([2]; 25 ms ramp, 1 L): 93 µg
FPD (<5 μm), TP ([2]; 25 ms ramp, 4 L): 92 µg
FPD (<5 μm), TP ([2]; 1000 ms ramp, 1 L): 87 µg
FPD (<5 μm), TP ([2]; 1000 ms ramp, 4 L): 90 µg
SMILES: CCCCCCCCCCCCCCCCOC(=O)COc1cccc2c1C[C@H]1C[C@@H](O)[C@H](CC[C@@H](O)CCCCC)[C@H]1C2 [TP, treprostinil palmitil]
